One series deals with A. baumannii NCTC 13420. Kind of series: Antibacterial assay, MIC/MBC by broth microdilution (CLSI). The series is classed as cell-based. Summed up:
(§1)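 CLSI broth microdilution in cation-adjusted Mueller Hinton broth, log-phase inoculum diluted to 7.5×10^5 CFU/mL before 1:1 mixing with two-fold compound dilutions, triplicates, 18 h at 37 °C static. MIC: >90% inhibition by OD600; MBC: lowest concentration giving no colonies after 5 μL spotted on agar, 18 h, 37 °C.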

Another series concerns E. cloacae NCTC 13405. The description is as above. The series is classed as cell-based. To be noted: for MBC (in brackets) / MIC: E. cloacae NCTC 13405; for MIC: repeated twice, a/b = both values. Put shortly:
as §1

The test system of another series is E. coli ATCC 25922. The series is described as above. To be noted: for MIC: repeated twice, a/b = both values. The series is classed as cell-based. Summed up: as §1
Series [1] relates to K. pneumoniae ATCC 700603. The series is described as above. The series is classed as cell-based. Put shortly: as §1
Another series deals with P. aeruginosa NCTC 13437. The description is as above. To be noted: for MBC (in brackets) / MIC: P. aeruginosa NCTC 13437; for MIC: repeated twice, a/b = both values. The series is classed as cell-based. Summed up:
as §1

For another series, the system named is S. aureus JE2 (USA300). Described as above. The series is classed as cell-based. To be noted: for MBC (in brackets) / MIC: S. aureus JE2 (USA300); for MIC: repeated twice, a/b = both values. Put shortly:
as §1

A short description of series [2]: Log P determination (n-octanol/water, FAAS). Summed up:
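Shake-flask partition between mutually saturated n-octanol and water; Au in each phase quantified by flame AAS against aqueous Au-standard and n-octanol calibration curves. Compound shaken ~4 h in water then 1 h with octanol, or 3-4 h in both phases then diluted and shaken 1 h; log P = log([oct]/[water]).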

The test system of another series is E. faecalis ATCC 700221. Nature of the series: Antibacterial assay, MIC/MBC by broth microdilution (CLSI). The series is classed as cell-based. To be noted: for MIC: repeated twice, a/b = both values. Put shortly: as §1
A general note: In broth dilution the organism is exposed to a series of concentrations in liquid medium.

Where [3] appears, read: A. baumannii NCTC 13420, repeated twice, a/b = both values.
Where [4] appears, read: K. pneumoniae ATCC 700603, repeated twice, a/b = both values.

Where two headings read alike, the source gives them in different places.

In the case of “(2,3,4,6-Tetra-O-acetyl-1-thio-β-D-glucopyranosato) (triethylphosphine) gold(I) [Compound 1, reference compound]”, the results for the MIC/MBC (with A. baumannii NCTC 13420 (A. baumannii); in series [1] (K. pneumoniae)) were 47 µM and 377 µM, respectively. Also, the “MBC (in brackets)” value was 47(47) μM/mL against A. baumannii NCTC 13420 (A. baumannii NCTC 13420); 189 (189) μM/mL against E. cloacae NCTC 13405; 24 (24) μM/mL in the series on E. coli ATCC 25922; 377 (377) μM/mL in series [1] (K. pneumoniae ATCC 700603); 377 (377) μM/mL with P. aeruginosa NCTC 13437; “(0.09) μM/mL” with S. aureus JE2 (USA300). For the same substance, the MIC against A. baumannii NCTC 13420 (setting [3]) is recorded as 47(47) μM/mL; in the series with E. cloacae NCTC 13405, 189 (189) μM/mL; in the series with E. coli ATCC 25922, 24 (24) μM/mL; in series [1] (setting [4]), 377 (377) μM/mL; in the series on P. aeruginosa NCTC 13437, 377 (377) μM/mL; in the series with S. aureus JE2 (USA300), 0.04 μM/mL. In addition, in series [2] (n-octanol/water, gold by FAAS), the log partition coefficient (Log P) was 0.56.
Consider “(2-Mercaptoethanolato)(trimethylphosphine) gold (I) [Compound 27]”, for which the MIC with A. baumannii NCTC 13420 (A. baumannii) was 5.7 µM; in the series on A. baumannii NCTC 13420 (setting [3]) it was 6/3; with E. cloacae NCTC 13405 it was 3 (3) μM/mL; against E. coli ATCC 25922, 1/6; against E. faecalis ATCC 700221 it was 0.3 (0.3) μM/mL; in series [1] (K. pneumoniae) it was 11 µg/mL. The MIC in series [1] (setting [4]) is reported as 11 μM/mL; in the series on P. aeruginosa NCTC 13437 it was 23/91; against S. aureus JE2 (USA300), 0.3 μM/mL. Also, the “MBC (in brackets)” value is 23 μM/mL against A. baumannii NCTC 13420 (A. baumannii NCTC 13420); 3 (3) μM/mL in the series with E. cloacae NCTC 13405; 11 μM/mL with E. coli ATCC 25922; 0.3 (0.3) μM/mL against E. faecalis ATCC 700221; 23 μM/mL in series [1] (K. pneumoniae ATCC 700603); 91 μM/mL in the series on P. aeruginosa NCTC 13437. Further, the “MBC (in brackets)” value against S. aureus JE2 (USA300) is given as 0.7 μM/mL. The substance also displayed an MIC/MBC against E. cloacae NCTC 13405 (E. cloacae) of 2.9 µM. In the series with E. cloacae NCTC 13405 (E. cloacae), the “MIC/MBC, fold lower than / improvement over auranofin” value was 65 fold. Also, the “MIC or MIC/MBC, fold lower than auranofin” value in series [1] (K. pneumoniae) was found to be 34 fold. Further, in the series with P. aeruginosa NCTC 13437 (P. aeruginosa), the activity in words entry is “showed activity”. The “Log P” value in series [2] is −0.15.
Take “[2,3,4,6-Tetra-O-acetyl-α-D-glucopyranosyl (1→4)-2,3,6-tri-O-acetyl-1-thio-β-D-glucopyranosato](triethylphosphine) gold(I) [Compound 5]”: the “MBC (in brackets)” value against A. baumannii NCTC 13420 (A. baumannii NCTC 13420) is reported as 33 (33) μM/mL; with E. cloacae NCTC 13405 it was 66 (66) μM/mL; against E. coli ATCC 25922 it was 17 (17) μM/mL; in the series with E. faecalis ATCC 700221, 6 (0.1) μM/mL; against P. aeruginosa NCTC 13437, 132 (132) μM/mL; in the series with S. aureus JE2 (USA300), “(0.06) μM/mL”. In addition, the MIC against A. baumannii NCTC 13420 (setting [3]) was 33 (33) μM/mL; with E. cloacae NCTC 13405, 66 (66) μM/mL; against E. coli ATCC 25922 it was 17 (17) μM/mL; in series [1] (setting [4]) it was above 265 μM/mL; in the series with P. aeruginosa NCTC 13437 it was 132 (132) μM/mL; against S. aureus JE2 (USA300), 0.008 μM/mL. Also, the “Log P” value in series [2] is 0.45.
As to “(2-Aminobenzenethiolato)(triethylphosphine) gold(I) [Compound 19]”, the “MBC (in brackets)” value against A. baumannii NCTC 13420 (A. baumannii NCTC 13420) was 18 μM/mL; against E. cloacae NCTC 13405, “(36/73)”; in the series with E. coli ATCC 25922, 36 (36) μM/mL; in the series with E. faecalis ATCC 700221, “(0.1) μM/mL”; in series [1] (K. pneumoniae ATCC 700603), 146 (146) μM/mL; with P. aeruginosa NCTC 13437, 291 (291) μM/mL. The “MBC (in brackets)” value with S. aureus JE2 (USA300) is recorded as “(0.6) μM/mL”. The MIC is 18/36 against A. baumannii NCTC 13420 (setting [3]); 18/73 in the series with E. cloacae NCTC 13405; 36 (36) μM/mL in the series with E. coli ATCC 25922; 0.02 μM/mL against E. faecalis ATCC 700221; 146 (146) μM/mL in series [1] (setting [4]); 291 (291) μM/mL in the series on P. aeruginosa NCTC 13437. In addition, the MIC with S. aureus JE2 (USA300) came to 0.009 μM/mL. The “MIC values in words” value in the series with S. aureus JE2 (USA300) (S. aureus) is “nanomolar range”. Further, the log partition coefficient (Log P) in series [2] stood at 0.61.

One may read the Log P as the decadic logarithm of the partition coefficient of the neutral form, usually between octanol and water.

These data come from US20210198284A1, “GOLD COMPOSITIONS AND METHODS OF USE THEREOF” (THE UNIVERSITY OF MASSACHUSETTS, priority 2018, published 2021).
